Test system: KRAS G13D mutant human colorectal adenocarcinoma epithelial cells DLD-1
Test: 3D cell proliferation inhibition assay, DLD-1
Type: cell-based
Details: DLD-1, 168 h, 7 days, CTG
From the text: Test Example 4: 3D Cell Proliferation Inhibition Assay
The inhibitory effect of the compounds on the proliferation of 3D cells was investigated on KRAS G12C mutant human non-small cell lung cancer cells NCI-H358 (ATCC or Stem Cell Bank, Chinese Academy of Sciences), KRAS G12D mutant human metastatic pancreatic adenocarcinoma cells AsPC-1 (ATCC), KRAS G12V mutant human lung adenocarcinoma cells NCI-H441 (ATCC), and KRAS G13D mutant human colorectal adenocarcinoma epithelial cells DLD-1 (ATCC). The specific procedures were as follows:
200 nL of compound solution diluted in a gradient was added to corresponding microwells of a 384-well low-adsorption microwell plate (Corning, 3657) using an Echo sonic pipetting system (Labcyte, Echo 550), so that the final concentration of the test compound in the reaction system was in a range of 20000 nM-0.008 nM. Then 40 μL of cells at a certain density were added to the corresponding microplate. In addition to test wells for the test compounds, both a DMSO control well and a medium control well were set, with the DMSO control well containing DMSO and cells and the medium well containing only medium. […] The plate was incubated at room temperature for 30 min and read on a microplate reader EnVision using the chemiluminescence program. […]

SMILES	IC50
COc1cc2nc(C)nc(N[C@H](C)c3cc(-c4c(Cl)cccc4CN(C)C)cs3)c2cc1[C@H]1CC[C@H](C(=O)N2CCN(CC3CCC4(CC3)CCN(C(=O)c3ccc(Cl)c(N5CCC(=O)NC5=O)c3)CC4)CC2)CC1 [Example 1, 1-(2-chloro-5-(9-((4-((1R,4R)-4-(4-(((R)-1-(4-(2-chloro-6-((dimethylamino)methyl)phenyl)thien-2-yl)ethyl)amino)-7-methoxy-2-methylquinazolin-6-yl)cyclohexane-1-carbonyl)piperazin-1-yl)methyl)-3-azaspiro[5.5]undecane-3-carbonyl)phenyl)dihydropyrimidine-2,4(1H,3H)-dione]	30 to 50 nM
COc1cc2nc(C)nc(N[C@H](C)c3cc(-c4c(Cl)cccc4CN(C)C)cs3)c2cc1[C@H]1CC[C@H](C(=O)N2CCC(CCOCC3CCN(C(=O)c4ccc(Cl)c(N5CCC(=O)NC5=O)c4)CC3)CC2)CC1 [Example 5, 1-(2-chloro-5-(4-((2-(1-((1R,4R)-4-(4-(((R)-1-(4-(2-chloro-6-((dimethylamino)methyl)phenyl)thien-2-yl)ethyl)amino)-7-methoxy-2-methylquinazolin-6-yl)cyclohexane-1-carbonyl)piperidin-4-yl)ethoxy)methyl)piperidine-1-carbonyl)phenyl)dihydropyrimidine-2,4(1H,3H)-dione]	50 to 100 nM
